Measured values as given in PubChem BioAssay (NCI).
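Dose response: 5 concentrations. Exposure: 48 h. Format: 96-well plates. Endpoint: linear interpolation; highest concentration if not reached. GI50 = concentration required for 50% inhibition of growth. TGI is the concentration that stops growth completely.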

Assays:
Assay in all cases: NCI-60 cell line screen, 48 h
786-0 renal = tested on: 786-0 renal
A498 renal = tested on: A498 renal
A549 NSCLC = tested on: A549 NSCLC
ACHN renal = tested on: ACHN renal
CAKI-1 renal = tested on: CAKI-1 renal
CCRF-CEM leukemia = tested on: CCRF-CEM leukemia
COLO 205 colon = tested on: COLO 205 colon
DMS 114 small cell lung = tested on: DMS 114 small cell lung
DMS 273 small cell lung = tested on: DMS 273 small cell lung
EKVX NSCLC = tested on: EKVX NSCLC
HCC-2998 colon = tested on: HCC-2998 colon
HCT-116 colon = tested on: HCT-116 colon
HCT-15 colon = tested on: HCT-15 colon
HL-60(TB) leukemia = tested on: HL-60(TB) leukemia
HOP-18 NSCLC = tested on: HOP-18 NSCLC
HOP-92 NSCLC = tested on: HOP-92 NSCLC
HT29 colon = tested on: HT29 colon
IGROV1 ovarian = tested on: IGROV1 ovarian
K-562 leukemia = tested on: K-562 leukemia
KM12 colon = tested on: KM12 colon
KM20L2 colon = tested on: KM20L2 colon
LOX IMVI melanoma = tested on: LOX IMVI melanoma
LXFL 529 NSCLC = tested on: LXFL 529 NSCLC
M14 melanoma = tested on: M14 melanoma
M19-MEL melanoma = tested on: M19-MEL melanoma
MALME-3M melanoma = tested on: MALME-3M melanoma
MOLT-4 leukemia = tested on: MOLT-4 leukemia
NCI-H226 lung = tested on: NCI-H226 lung
NCI-H23 lung = tested on: NCI-H23 lung
NCI-H460 lung = tested on: NCI-H460 lung
NCI-H522 lung = tested on: NCI-H522 lung
OVCAR-3 ovarian = tested on: OVCAR-3 ovarian
OVCAR-4 ovarian = tested on: OVCAR-4 ovarian
OVCAR-5 ovarian = tested on: OVCAR-5 ovarian
OVCAR-8 ovarian = tested on: OVCAR-8 ovarian
RPMI-8226 leukemia = tested on: RPMI-8226 leukemia
RXF 393 renal = tested on: RXF 393 renal
SF-268 CNS = tested on: SF-268 CNS
SF-295 CNS = tested on: SF-295 CNS
SK-MEL-2 melanoma = tested on: SK-MEL-2 melanoma
SK-MEL-28 melanoma = tested on: SK-MEL-28 melanoma
SK-MEL-5 melanoma = tested on: SK-MEL-5 melanoma
SK-OV-3 ovarian = tested on: SK-OV-3 ovarian
SN12C renal = tested on: SN12C renal
SNB-19 CNS = tested on: SNB-19 CNS
SNB-75 CNS = tested on: SNB-75 CNS
SNB-78 CNS = tested on: SNB-78 CNS
SR leukemia = tested on: SR leukemia
SW-620 colon = tested on: SW-620 colon
TK-10 renal = tested on: TK-10 renal
U251 CNS = tested on: U251 CNS
UACC-257 melanoma = tested on: UACC-257 melanoma
UACC-62 melanoma = tested on: UACC-62 melanoma
UO-31 renal = tested on: UO-31 renal
DLD-1 colon = tested on: DLD-1 colon
SF-539 CNS = tested on: SF-539 CNS
XF 498 CNS = tested on: XF 498 CNS

CCCCCCCCCCCCCCCCCC(CCCCCCCCCCCCCCCCC)OP(=O)(O)O
TGI (786-0 renal): > 100 µM
TGI (A498 renal): > 100 µM
TGI (A549 NSCLC): > 100 µM
TGI (ACHN renal): > 100 µM
TGI (CAKI-1 renal): > 100 µM
TGI (CCRF-CEM leukemia): > 100 µM
TGI (COLO 205 colon): > 100 µM
TGI (DMS 114 small cell lung): > 100 µM
TGI (DMS 273 small cell lung): > 100 µM
TGI (EKVX NSCLC): > 100 µM
TGI (HCC-2998 colon): > 100 µM
TGI (HCT-116 colon): > 100 µM
TGI (HCT-15 colon): > 100 µM
TGI (HL-60(TB) leukemia): > 100 µM
TGI (HOP-18 NSCLC): > 100 µM
TGI (HOP-92 NSCLC): > 100 µM
TGI (HT29 colon): > 100 µM
TGI (IGROV1 ovarian): > 100 µM
TGI (K-562 leukemia): > 100 µM
TGI (KM12 colon): > 100 µM
TGI (KM20L2 colon): > 100 µM
TGI (LOX IMVI melanoma): > 100 µM
TGI (LXFL 529 NSCLC): > 100 µM
TGI (M14 melanoma): > 100 µM
TGI (M19-MEL melanoma): > 100 µM
TGI (MALME-3M melanoma): > 100 µM
TGI (MOLT-4 leukemia): > 100 µM
TGI (NCI-H226 lung): > 100 µM
TGI (NCI-H23 lung): > 100 µM
TGI (NCI-H460 lung): > 100 µM
TGI (NCI-H522 lung): > 100 µM
TGI (OVCAR-3 ovarian): > 100 µM
TGI (OVCAR-4 ovarian): > 100 µM
TGI (OVCAR-5 ovarian): > 100 µM
TGI (OVCAR-8 ovarian): > 100 µM
TGI (RPMI-8226 leukemia): > 100 µM
TGI (RXF 393 renal): > 100 µM
TGI (SF-268 CNS): > 100 µM
TGI (SF-295 CNS): > 100 µM
TGI (SK-MEL-2 melanoma): > 100 µM
TGI (SK-MEL-28 melanoma): > 100 µM
TGI (SK-MEL-5 melanoma): > 100 µM
TGI (SK-OV-3 ovarian): > 100 µM
TGI (SN12C renal): > 100 µM
TGI (SNB-19 CNS): > 100 µM
TGI (SNB-75 CNS): > 100 µM
TGI (SNB-78 CNS): > 100 µM
TGI (SR leukemia): > 100 µM
TGI (SW-620 colon): > 100 µM
TGI (TK-10 renal): > 100 µM
TGI (U251 CNS): > 100 µM
TGI (UACC-257 melanoma): > 100 µM
TGI (UACC-62 melanoma): > 100 µM
TGI (UO-31 renal): > 100 µM

N#CC1C(C#N)C2(c3ccccc3)C(c3ccccc3)=NN(c3ccccc3)CC12 (centres undefined)
TGI (786-0 renal): > 100 µM
TGI (A498 renal): > 100 µM
TGI (A549 NSCLC): > 100 µM
TGI (ACHN renal): > 100 µM
TGI (CAKI-1 renal): > 100 µM
TGI (CCRF-CEM leukemia): > 100 µM
TGI (DLD-1 colon): > 100 µM
TGI (DMS 114 small cell lung): > 100 µM
TGI (DMS 273 small cell lung): > 100 µM
TGI (EKVX NSCLC): > 100 µM
TGI (HCC-2998 colon): > 100 µM
TGI (HCT-116 colon): > 100 µM
TGI (HCT-15 colon): > 100 µM
TGI (HL-60(TB) leukemia): > 100 µM
TGI (HOP-18 NSCLC): > 100 µM
TGI (IGROV1 ovarian): > 100 µM
TGI (K-562 leukemia): > 100 µM
TGI (KM12 colon): > 100 µM
TGI (KM20L2 colon): > 100 µM
TGI (LOX IMVI melanoma): > 100 µM
TGI (LXFL 529 NSCLC): > 100 µM
TGI (M14 melanoma): > 100 µM
TGI (M19-MEL melanoma): > 100 µM
TGI (MALME-3M melanoma): > 100 µM
TGI (MOLT-4 leukemia): > 100 µM
TGI (NCI-H226 lung): > 100 µM
TGI (NCI-H460 lung): > 100 µM
TGI (OVCAR-3 ovarian): > 100 µM
TGI (OVCAR-4 ovarian): > 100 µM
TGI (OVCAR-5 ovarian): > 100 µM
TGI (OVCAR-8 ovarian): > 100 µM
TGI (RPMI-8226 leukemia): > 100 µM
TGI (RXF 393 renal): > 100 µM
TGI (SF-295 CNS): > 100 µM
TGI (SF-539 CNS): > 100 µM
TGI (SK-MEL-2 melanoma): > 100 µM
TGI (SK-MEL-28 melanoma): > 100 µM
TGI (SK-MEL-5 melanoma): > 100 µM
TGI (SN12C renal): > 100 µM
TGI (SNB-19 CNS): > 100 µM
TGI (SNB-75 CNS): > 100 µM
TGI (SNB-78 CNS): > 100 µM
TGI (SR leukemia): > 100 µM
TGI (SW-620 colon): > 100 µM
TGI (TK-10 renal): > 100 µM
TGI (U251 CNS): > 100 µM
TGI (UACC-257 melanoma): > 100 µM
TGI (UACC-62 melanoma): > 100 µM
TGI (UO-31 renal): > 100 µM
TGI (XF 498 CNS): > 100 µM

O=C([O-])CC(=O)[O-].O=C([O-])CC(=O)[O-].[K+].[Pd+2]
GI50 (A549 NSCLC): > 100 µM
TGI (A549 NSCLC): > 100 µM
GI50 (CAKI-1 renal): > 100 µM
TGI (CAKI-1 renal): > 100 µM
GI50 (COLO 205 colon): > 100 µM
TGI (COLO 205 colon): > 100 µM
GI50 (DLD-1 colon): > 100 µM
TGI (DLD-1 colon): > 100 µM
GI50 (DMS 273 small cell lung): > 100 µM
TGI (DMS 273 small cell lung): > 100 µM
GI50 (EKVX NSCLC): > 100 µM
TGI (EKVX NSCLC): > 100 µM
GI50 (HCC-2998 colon): > 100 µM
TGI (HCC-2998 colon): > 100 µM
GI50 (HCT-116 colon): > 100 µM
TGI (HCT-116 colon): > 100 µM
GI50 (HCT-15 colon): > 100 µM
TGI (HCT-15 colon): > 100 µM
GI50 (HOP-18 NSCLC): > 100 µM
TGI (HOP-18 NSCLC): > 100 µM
GI50 (KM20L2 colon): > 100 µM
TGI (KM20L2 colon): > 100 µM
GI50 (LOX IMVI melanoma): > 100 µM
TGI (LOX IMVI melanoma): > 100 µM
GI50 (LXFL 529 NSCLC): > 100 µM
TGI (LXFL 529 NSCLC): > 100 µM
GI50 (M14 melanoma): > 100 µM
TGI (M14 melanoma): > 100 µM
GI50 (MALME-3M melanoma): > 100 µM
TGI (MALME-3M melanoma): > 100 µM
GI50 (NCI-H226 lung): > 100 µM
TGI (NCI-H226 lung): > 100 µM
GI50 (NCI-H23 lung): > 100 µM
TGI (NCI-H23 lung): > 100 µM
GI50 (NCI-H460 lung): > 100 µM
TGI (NCI-H460 lung): > 100 µM
GI50 (NCI-H522 lung): > 100 µM
TGI (NCI-H522 lung): > 100 µM
GI50 (OVCAR-3 ovarian): > 100 µM
TGI (OVCAR-3 ovarian): > 100 µM
GI50 (OVCAR-4 ovarian): > 100 µM
TGI (OVCAR-4 ovarian): > 100 µM
GI50 (OVCAR-5 ovarian): > 100 µM
TGI (OVCAR-5 ovarian): > 100 µM
GI50 (OVCAR-8 ovarian): > 100 µM
TGI (OVCAR-8 ovarian): > 100 µM
GI50 (RPMI-8226 leukemia): > 100 µM
TGI (RPMI-8226 leukemia): > 100 µM
GI50 (RXF 393 renal): > 100 µM
TGI (RXF 393 renal): > 100 µM
GI50 (SF-295 CNS): > 100 µM
TGI (SF-295 CNS): > 100 µM
GI50 (SF-539 CNS): > 100 µM
TGI (SF-539 CNS): > 100 µM
GI50 (SK-MEL-2 melanoma): > 100 µM
TGI (SK-MEL-2 melanoma): > 100 µM
GI50 (SK-MEL-28 melanoma): > 100 µM
TGI (SK-MEL-28 melanoma): > 100 µM
GI50 (SK-MEL-5 melanoma): > 100 µM
TGI (SK-MEL-5 melanoma): > 100 µM
GI50 (SN12C renal): > 100 µM
TGI (SN12C renal): > 100 µM
GI50 (SNB-19 CNS): > 100 µM
TGI (SNB-19 CNS): > 100 µM
GI50 (SNB-75 CNS): > 100 µM
TGI (SNB-75 CNS): > 100 µM
GI50 (SNB-78 CNS): > 100 µM
TGI (SNB-78 CNS): > 100 µM
GI50 (SR leukemia): > 100 µM
TGI (SR leukemia): > 100 µM
GI50 (SW-620 colon): > 100 µM
TGI (SW-620 colon): > 100 µM
GI50 (TK-10 renal): > 100 µM
TGI (TK-10 renal): > 100 µM
GI50 (U251 CNS): > 100 µM
TGI (U251 CNS): > 100 µM
GI50 (UACC-62 melanoma): > 100 µM
TGI (UACC-62 melanoma): > 100 µM
GI50 (UO-31 renal): > 100 µM
TGI (UO-31 renal): > 100 µM
